# Reference: patent US20160008277A1, “CO-PACKAGED DRUG PRODUCTS” (Lightlake Therapeutics Inc., priority 2014, published 2016)
# Like-named read-outs stand apart in the source and are kept apart here.
# Legend:
# overdose events = details: cited from earlier work
# [1] = system: patients with suspected opioid overdose; details: cited from earlier work
# opiate addicts = details: cited from earlier work
# heroin overdose = details: cited from earlier work
# [2] = for Cmax/D, GLSM: dose adjustment to 0.4 mg
# [3] = system: suspected opiate overdose; details: cited from earlier work
# [4] = Safety of intranasal naloxone in humans (Study 2): nasal irritation, adverse events, vital signs, ECG; assay type: in vivo, human
# Text: Specifically, the study had several objectives.
# AEs were coded using the most recent version of the Medical Dictionary for Regulatory Activities (MedDRA) preferred terms and grouped by system, organ, class (SOC) designation. Separate summaries will be provided for the 5 study periods: after the administration of each dose of study drug up until the time of the next dose of study drug or clinic discharge. Listings of each individual AE including start date, stop date, severity, relationship, outcome, and duration were provided. Results are given below in Tables 12 and 13.
# clinical [5] = details: human, plasma; for AUC(0-t): AUC0-t; for AUC(0-inf): AUC0-∞
# [6] = 400 μL, cited from earlier work
# clinical [7] = details: human, plasma
# [8] = Safety of intranasal naloxone in humans (Study 1): nasal irritation, vital signs, ECG, clinical laboratory; assay type: in vivo, human
# Method: These vital signs and temperature were also measured at screening, clinic intake, one day after each dosing session and at follow-up. […] AEs were recorded from the start of study-drug administration until clinic discharge. […] Clinical laboratory measurements were done prior to the first drug administration and on the day of clinic release.
# Statistical Analysis of Adverse Events: AEs were coded using the most recent version of the Medical Dictionary for Regulatory Activities (MedDRA). Preferred terms and are grouped by system, organ, class (SOC) designation. AEs are presented as a listing including the start date, stop date, severity, relationship, outcome, and duration.
# [9] = im, 0.4 mg, GLSM, 0.4 mg IM, no dose adjustment
# [10] = other: intranasal, 2 mg, GLSM, 2 mg IN, no dose adjustment
# [11] = other: intranasal, 2 mg, Mean, 2 mg IN
# [12] = other: intranasal, 4 mg, GLSM, 4 mg IN, no dose adjustment
# [13] = other: intranasal, 4 mg, Mean, 4 mg IN
smiles,measurement,setting,value
"C=CCN1CC[C@]23c4c5ccc(O)c4O[C@H]2C(=O)CC[C@@]3(O)[C@H]1C5 [naloxone, 17-allyl-4,5a-epoxy-3,14-dihydroxymorphinan-6-one]","AUC % Extrapolate, mean (% CV)",0.4 mg IM,2.32 (54.1) %
same,Lambda z (harmonic mean),0.4 mg IM,0.5534 h⁻¹
same,Lambda z (harmonic mean),"0.4 mg IM, Female",0.6140 h⁻¹
same,Lambda z (harmonic mean),"0.4 mg IM, Male",0.5152 h⁻¹
same,Lambda z (harmonic mean),"One 20 mg/mL IN, Female",0.3978 h⁻¹
same,Lambda z (harmonic mean),"One 20 mg/mL IN, Male",0.3492 h⁻¹
same,Lambda z (harmonic mean),"One 40 mg/mL IN, Female",0.2946 h⁻¹
same,Lambda z (harmonic mean),"One 40 mg/mL IN, Male",0.3386 h⁻¹
same,"AUC % Extrapolate, mean (% CV)",One Spray - 2 mg 20 mg/mL IN,1.09 (41.9) %
same,Lambda z (harmonic mean),One Spray - 2 mg 20 mg/mL IN,0.3685 h⁻¹
same,"AUC % Extrapolate, mean (% CV)",One Spray - 4 mg 40 mg/mL IN,1.06 (52.5) %
same,Lambda z (harmonic mean),One Spray - 4 mg 40 mg/mL IN,0.3182 h⁻¹
same,Lambda z (harmonic mean),"Two 20 mg/mL IN, Female",0.2796 h⁻¹
same,Lambda z (harmonic mean),"Two 20 mg/mL IN, Male",0.3122 h⁻¹
same,Lambda z (harmonic mean),"Two 40 mg/mL IN, Female",0.2994 h⁻¹
same,Lambda z (harmonic mean),"Two 40 mg/mL IN, Male",0.3407 h⁻¹
same,"AUC % Extrapolate, mean (% CV)",Two Sprays - 4 mg 20 mg/mL IN,1.01 (53.9) %
same,Lambda z (harmonic mean),Two Sprays - 4 mg 20 mg/mL IN,0.2973 h⁻¹
same,"AUC % Extrapolate, mean (% CV)",Two Sprays - 8 mg 40 mg/mL IN,1.04 (78.1) %
same,Lambda z (harmonic mean),Two Sprays - 8 mg 40 mg/mL IN,0.3217 h⁻¹
same,overdose events reversed,"overdose events; 399 overdose events where naloxone was used, participant-reported",89%
same,participants reporting serious adverse effects,overdose events; take-home naloxone,< 1%
same,mean interval from EMS arrival to a respiratory rate of ≧10 breaths/min,[1]; naloxone 0.4 mg IV,9.3 ± 4.2 min
same,mean interval from EMS arrival to a respiratory rate of ≧10 breaths/min,[1]; naloxone 0.8 mg SQ,9.6 ± 4.58 min
same,effectiveness of nasal administration compared with intravenous route,opiate addicts,as effective as the intravenous route
same,rate of response within 10 minutes,"heroin overdose; 2 mg IM naloxone, 69/89",77.5%
same,rate of response within 10 minutes,"heroin overdose; 2 mg IN naloxone, 60/83",72.3%
same,patients administered supplementary naloxone,heroin overdose; IM naloxone,4.5%
same,mean response time,heroin overdose; IN naloxone,8.0 min
same,mean response time,heroin overdose; IV naloxone,7.9 min
same,"λz, Mean",[2]; 0.4 mg IM,0.593 h⁻¹
same,"Cmax/D, GLSM",[2]; 0.4 mg IM,0.755 ng/mL
same,"λz, Mean",[2]; 2 mg IN,0.588 h⁻¹
same,"Frel, Mean",[2]; 2 mg IN versus IM,0.571
same,"Cmax/D, GLSM",[2]; 2 mg IN,0.510 ng/mL
same,"Frel, Mean",[2]; 4 mg IN versus IM,0.475
same,"Cmax/D, GLSM",[2]; 4 mg IN,0.466 ng/mL
same,patients responding to IN naloxone alone,"[3]; 2 mg IN, 43 of 52 patients who responded to naloxone by IN or IV",83%
same,median time from administration of the IN naloxone to patient awakening,[3]; 2 mg IN,3.0 min
same,median time from arrival at patient side to awakening,[3]; 2 mg IN,8.0 min
same,patients requiring further doses of IV naloxone,[3]; among responders to 2 mg IN alone,16%
same,Dizziness (adverse events),[4]; 0.4 mg Intramuscular Dose,1
same,Headache (adverse events),[4]; 0.4 mg Intramuscular Dose,1
same,Nausea (adverse events),[4]; 0.4 mg Intramuscular Dose,1
same,Edema (events related to nasal irritation),"[4]; 2 mg (20 mg/mL, one spray)",2
same,Erythema (events related to nasal irritation),"[4]; 2 mg (20 mg/mL, one spray)",4
same,Nasal Pain (adverse events),"[4]; 2 mg (20 mg/mL, one spray)",1
same,Other (events related to nasal irritation),"[4]; 2 mg (20 mg/mL, one spray)",1
same,Total (events related to nasal irritation),"[4]; 2 mg (20 mg/mL, one spray)",7
same,Edema (events related to nasal irritation),"[4]; 4 mg (20 mg/mL, two sprays)",0
same,Erythema (events related to nasal irritation),"[4]; 4 mg (20 mg/mL, two sprays)",1
same,Other (events related to nasal irritation),"[4]; 4 mg (20 mg/mL, two sprays)",0
same,Total (events related to nasal irritation),"[4]; 4 mg (20 mg/mL, two sprays)",1
same,Edema (events related to nasal irritation),"[4]; 4 mg (40 mg/mL, one spray)",2
same,Erythema (events related to nasal irritation),"[4]; 4 mg (40 mg/mL, one spray)",1
same,Other (events related to nasal irritation),"[4]; 4 mg (40 mg/mL, one spray)",0
same,Total (events related to nasal irritation),"[4]; 4 mg (40 mg/mL, one spray)",3
same,Edema (events related to nasal irritation),"[4]; 8 mg (40 mg/mL, two sprays)",1
same,Erythema (events related to nasal irritation),"[4]; 8 mg (40 mg/mL, two sprays)",0
same,Headache (adverse events),"[4]; 8 mg (40 mg/mL, two sprays)",1
same,Other (events related to nasal irritation),"[4]; 8 mg (40 mg/mL, two sprays)",0
same,Total (events related to nasal irritation),"[4]; 8 mg (40 mg/mL, two sprays)",1
same,Relation of nasal irritation to the dose of naloxone given,[4]; 2 to 8 mg IN,did not appear to be positively related to the dose
same,QTcF prolongation,[4]; Study 2,no evidence of QTcF prolongation
same,"Vital signs, ECG, and clinical laboratory parameters","[4]; after naloxone administration, Study 2",did not reveal any clinically noteworthy changes
same,Adverse events overall,"[4]; nasal or intramuscular administration, Study 2",few adverse events were reported
same,AUC(0-t),clinical [5]; [9],1.35 ng·h/mL
same,AUC(0-t),"clinical [5]; im, 0.4 mg, Mean, 0.4 mg IM",1.38 ng·h/mL
same,AUC(0-inf),clinical [5]; [9],1.39 ng·h/mL
same,AUC(0-inf),"clinical [5]; im, 0.4 mg, Mean, 0.4 mg IM",1.42 ng·h/mL
same,Tmax,"clinical [5]; im, 0.4 mg, GLSM, 0.4 mg IM",18.5 min
same,Tmax,"clinical [5]; im, 0.4 mg, Mean, 0.4 mg IM",20.3 min
same,AUC(0-t),clinical [5]; [10],3.28 ng·h/mL
same,AUC(0-t),clinical [5]; [11],3.41 ng·h/mL
same,AUC(0-inf),clinical [5]; [10],3.32 ng·h/mL
same,AUC(0-inf),clinical [5]; [11],3.44 ng·h/mL
same,Tmax,"clinical [5]; other: intranasal, 2 mg, GLSM, 2 mg IN",20 min
same,Tmax,clinical [5]; [11],20 min
same,AUC(0-t),clinical [5]; [12],5.41 ng·h/mL
same,AUC(0-t),clinical [5]; [13],5.63 ng·h/mL
same,AUC(0-inf),clinical [5]; [12],5.47 ng·h/mL
same,AUC(0-inf),clinical [5]; [13],5.68 ng·h/mL
same,Tmax,"clinical [5]; other: intranasal, 4 mg, GLSM, 4 mg IN",17.5 min
same,Tmax,clinical [5]; [13],18.4 min
same,mean Tmax,[6]; 8 mg IN,20.4 min
same,mean Tmax,[6]; 16 mg IN,23.4 min
same,Cmax,"clinical [7]; female, im, 0.4 mg, 0.4 mg IM",1.06 ng/mL
same,Tmax,"clinical [7]; female, im, 0.4 mg, Tmax (median), 0.4 mg IM",19.8 min
same,Tmax,"clinical [7]; female, other: intranasal (IN), 4 mg, Tmax (median), One 40 mg/mL IN, Female",30 min
same,Tmax,"clinical [7]; female, other: intranasal (IN), 8 mg, Tmax (median), Two 40 mg/mL IN, Female",17.4 min
same,Cmax,"clinical [7]; female, other: intranasal, 2 mg, One 20 mg/mL IN, Female",2.79 ng/mL
same,Tmax,"clinical [7]; female, other: intranasal, 2 mg, Tmax (median), One 20 mg/mL IN, Female",19.8 min
same,Cmax,"clinical [7]; female, other: intranasal, 4 mg, One 40 mg/mL IN, Female",5.12 ng/mL
same,Cmax,"clinical [7]; female, other: intranasal, 4 mg, Two 20 mg/mL IN, Female",6.62 ng/mL
same,Tmax,"clinical [7]; female, other: intranasal, 4 mg, Tmax (median), Two 20 mg/mL IN, Female",19.8 min
same,Cmax,"clinical [7]; female, other: intranasal, 8 mg, Two 40 mg/mL IN, Female",9.52 ng/mL
same,Cmax,"clinical [7]; im, 0.4 mg, mean (% CV), 0.4 mg IM",0.906 ng/mL
same,Tmax,"clinical [7]; im, 0.4 mg, Tmax (median, range), 0.4 mg IM",25.2 min
same,Cmax,"clinical [7]; other: intranasal, 2 mg, mean (% CV), One Spray - 2 mg 20 mg/mL IN",3.11 ng/mL
same,Tmax,"clinical [7]; other: intranasal, 2 mg, Tmax (median, range), One Spray - 2 mg 20 mg/mL IN",19.8 min
same,Cmax,"clinical [7]; other: intranasal, 4 mg, mean (% CV), One Spray - 4 mg 40 mg/mL IN",5.34 ng/mL
same,Cmax,"clinical [7]; other: intranasal, 4 mg, mean (% CV), Two Sprays - 4 mg 20 mg/mL IN",6.63 ng/mL
same,Tmax,"clinical [7]; other: intranasal, 4 mg, Tmax (median, range), One Spray - 4 mg 40 mg/mL IN",30 min
same,Tmax,"clinical [7]; other: intranasal, 4 mg, Tmax (median, range), Two Sprays - 4 mg 20 mg/mL IN",19.8 min
same,Cmax,"clinical [7]; other: intranasal, 8 mg, mean (% CV), Two Sprays - 8 mg 40 mg/mL IN",10.3 ng/mL
same,Tmax,"clinical [7]; other: intranasal, 8 mg, Tmax (median, range), Two Sprays - 8 mg 40 mg/mL IN",19.8 min
same,Cmax,"clinical [7]; male, im, 0.4 mg, 0.4 mg IM",0.792 ng/mL
same,Tmax,"clinical [7]; male, im, 0.4 mg, Tmax (median), 0.4 mg IM",30 min
same,Tmax,"clinical [7]; male, other: intranasal (IN), 4 mg, Tmax (median), One 40 mg/mL IN, Male",30 min
same,Tmax,"clinical [7]; male, other: intranasal (IN), 8 mg, Tmax (median), Two 40 mg/mL IN, Male",25.2 min
same,Cmax,"clinical [7]; male, other: intranasal, 2 mg, One 20 mg/mL IN, Male",3.35 ng/mL
same,Tmax,"clinical [7]; male, other: intranasal, 2 mg, Tmax (median), One 20 mg/mL IN, Male",19.8 min
same,Cmax,"clinical [7]; male, other: intranasal, 4 mg, One 40 mg/mL IN, Male",5.51 ng/mL
same,Cmax,"clinical [7]; male, other: intranasal, 4 mg, Two 20 mg/mL IN, Male",6.64 ng/mL
same,Tmax,"clinical [7]; male, other: intranasal, 4 mg, Tmax (median), Two 20 mg/mL IN, Male",15 min
same,Cmax,"clinical [7]; male, other: intranasal, 8 mg, Two 40 mg/mL IN, Male",10.9 ng/mL
same,Pharyngeal pain,[8]; 2 mg IN dose,One subject experienced mild transient (over 3 min) pharyngeal pain
same,"Nasal irritation (erythema, edema, erosion, other sign in the nasal cavity)",[8]; IN naloxone at 2 and 4 mg to both nostrils,"No erythema, edema, erosion, or other sign was observed"
same,QTcF prolongation,[8]; Study 1,no evidence of QTcF prolongation
same,"Vital signs, ECG, and clinical laboratory parameters","[8]; after naloxone administration, Study 1",did not reveal any clinically noteworthy changes
